The source made the active and inactive calls.
Columns and labels:
[1] = target: T1, Short transient receptor potential channel 4 (Mus musculus, UniProt Q9QUQ5); test: mouse TRPC4 channel activators, dose response, cell-based, HEK293 TRPC4/mu-opioid, Fluo-4 calcium (AID 434937); format: functional
T1 sequence (Q9QUQ5 whole entry): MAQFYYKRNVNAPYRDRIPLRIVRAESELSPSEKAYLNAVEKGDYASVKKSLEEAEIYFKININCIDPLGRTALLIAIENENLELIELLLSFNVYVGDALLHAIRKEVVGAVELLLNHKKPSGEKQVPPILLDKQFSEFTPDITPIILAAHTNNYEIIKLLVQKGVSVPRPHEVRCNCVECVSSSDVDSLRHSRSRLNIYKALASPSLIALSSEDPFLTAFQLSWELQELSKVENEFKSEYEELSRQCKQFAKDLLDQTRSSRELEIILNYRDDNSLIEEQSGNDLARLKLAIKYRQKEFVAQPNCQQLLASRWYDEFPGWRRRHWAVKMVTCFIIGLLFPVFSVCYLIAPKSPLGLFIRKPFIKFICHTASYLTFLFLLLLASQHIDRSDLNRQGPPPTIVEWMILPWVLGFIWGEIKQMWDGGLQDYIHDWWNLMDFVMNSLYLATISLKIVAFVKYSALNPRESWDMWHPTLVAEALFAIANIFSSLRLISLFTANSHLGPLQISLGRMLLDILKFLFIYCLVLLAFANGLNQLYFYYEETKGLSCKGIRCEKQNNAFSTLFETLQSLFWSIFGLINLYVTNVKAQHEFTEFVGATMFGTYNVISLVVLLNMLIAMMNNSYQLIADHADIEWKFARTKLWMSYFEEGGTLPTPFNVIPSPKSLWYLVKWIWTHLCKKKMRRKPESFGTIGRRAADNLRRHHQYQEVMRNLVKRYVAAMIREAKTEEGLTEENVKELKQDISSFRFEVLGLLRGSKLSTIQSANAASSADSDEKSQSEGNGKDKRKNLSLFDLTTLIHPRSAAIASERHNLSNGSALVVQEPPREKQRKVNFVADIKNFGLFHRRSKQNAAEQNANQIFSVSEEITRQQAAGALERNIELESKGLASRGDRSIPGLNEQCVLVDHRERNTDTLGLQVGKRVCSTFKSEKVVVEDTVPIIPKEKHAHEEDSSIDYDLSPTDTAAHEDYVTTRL

[2] = target: T2, Estrogen receptor (Homo sapiens, UniProt P03372);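 further: potency for inhibiting coactivator peptide recruitment to the receptor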
T2 sequence (P03372 whole entry): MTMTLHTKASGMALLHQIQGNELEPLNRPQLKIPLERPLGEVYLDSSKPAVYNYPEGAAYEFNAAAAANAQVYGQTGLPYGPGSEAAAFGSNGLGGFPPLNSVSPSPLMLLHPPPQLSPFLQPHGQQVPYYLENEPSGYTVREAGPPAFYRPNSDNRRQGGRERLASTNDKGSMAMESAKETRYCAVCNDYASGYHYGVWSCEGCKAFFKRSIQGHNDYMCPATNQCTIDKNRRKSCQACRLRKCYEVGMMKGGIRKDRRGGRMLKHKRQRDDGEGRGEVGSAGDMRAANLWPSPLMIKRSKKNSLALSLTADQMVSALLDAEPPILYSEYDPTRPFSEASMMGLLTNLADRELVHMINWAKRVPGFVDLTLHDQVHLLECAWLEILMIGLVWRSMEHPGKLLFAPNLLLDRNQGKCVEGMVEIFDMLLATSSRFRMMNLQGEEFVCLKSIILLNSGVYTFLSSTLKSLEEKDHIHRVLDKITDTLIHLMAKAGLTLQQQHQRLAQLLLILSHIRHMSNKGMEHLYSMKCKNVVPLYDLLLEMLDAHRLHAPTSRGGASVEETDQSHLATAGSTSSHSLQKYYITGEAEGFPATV

[3] = target: Troponin, cardiac muscle (Homo sapiens, UniProt P19429+P45379+P63316); test: Fluorescence-based biochemical high throughput dose response assay for activators of the calcium sensitivity of cardiac Regulated Thin Filaments (RTF). [Related pubchem assays (depositor defined):AID493008, AID493018, AID504382, AID504383]; format: protein-complex assay
[4] = Vero E6 cell cytotoxicity, dose response, cytotoxicity control for non-replicating M. tuberculosis project, secondary assay (AID 492998); format: functional, VeroE6; settings: Vero C1008
[5] = growth suppression of beta-catenin-knockout colon cells, dose response, cell-based, HCT116, human colon tumor (AID 1045); format: functional;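 further: HCT116 colon tumor cells with beta catenin knocked out; cells exposed to compound for 60 hours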
[6] = HepG2 cell cytotoxicity, dose response, cytotoxicity control for non-replicating M. tuberculosis project (AID 489018); format: functional; settings: Mycobacterium tuberculosis
[7] = growth suppression of PTEN-null colon cells, dose response, cell-based, HCT116 PTEN knockout (AID 1047); format: functional;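 further: HCT116 colon tumor cells with PTEN knocked out; cells exposed to compound for 60 hours before readout; potency for loss of cell viability measured by luminescence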
[8] = THP-1 cell cytotoxicity, dose response, cytotoxicity control for non-replicating M. tuberculosis project (AID 489025); format: functional
[9] = system: INS1; test: beta cell apoptosis inhibitors, cytokine rescue, dose response, luminescence, retest (AID 449756); format: functional, cell-based; settings: Rattus norvegicus;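 further: cell death triggered by IL-1 beta plus TNF-alpha plus IFN-gamma mixture; protective hits raise ATP signal compared with cytokine alone wells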
[10] = cells; format: functional
[11] = target: Ephrin type-A receptor 4 (Mus musculus, UniProt Q03137); test: inhibitors of EphA4 binding to KYL peptide, primary screen, biochemical, colorimetric, mouse EphA4 (AID 689); format: functional
[12] = target: T3, SUMO-activating enzyme (Homo sapiens, UniProt Q9UBT2); test: inhibitors of in vitro SUMOylation cascade, primary screen, biochemical, HTRF, uHTS (AID 2006); format: protein-complex assay
[13] = target: T3, SUMO-activating enzyme; test: SUMOylation inhibitor hit validation, confirmation, SUMOylation inhibitor project, biochemical, AlphaScreen (AID 2018); format: functional
[14] = target: SUMO E1/E2 (Homo sapiens, UniProt P63279+Q9UBE0+Q9UBT2); test: SAR analysis of SUMOylation using HTRF in an in-Vitro dose response assay. [Related pubchem assays (depositor defined):AID2006, AID2011, AID2018, AID2069, AID2658]; format: functional
[15] = target: Protein Rev (Human immunodeficiency virus type 1 group M subtype B (isolate HXB2)(HIV-1), UniProt P04618); test: inhibitors of Rev binding to RRE RNA, dose response, biochemical, fluorescence polarization, HIV-1 (AID 434976); set-up: species or system Human immunodeficiency virus 1
[16] = target: Female germline-specific tumor suppressor gld-1 (Caenorhabditis elegans, UniProt Q17339); test: inhibitors of GLD-1 binding to TGE RNA, dose response, biochemical, fluorescence polarization, C. elegans (AID 2802);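 further: fluorescence polarization of labeled TGE RNA bound by purified gld-1 protein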
[17] = target: T4, Runt-related transcription factor 1/Core-binding factor subunit beta (Homo sapiens, UniProt Q01196+Q13951); test: inhibitors of RUNX1 Runt–CBFb-SMMHC binding, biochemical, TR-FRET (AID 1438); format: protein assay
[18] = target: T4, Runt-related transcription factor 1/Core-binding factor subunit beta; test: inhibitors of RUNX1 Runt–CBFb-SMMHC binding, primary screen, biochemical, FRET, Cerulean-Runt, Venus-CBFb-SMMHC, uHTS (AID 1434); format: protein assay;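 further: partner is the CBFb-SMMHC leukemia fusion protein rather than wild-type CBFb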
[19] = target: Glyceraldehyde-3-phosphate dehydrogenase (Homo sapiens, UniProt P04406)
[20] = target: Alkaline phosphatase, placental type (Homo sapiens, UniProt P05187); test: PLAP enzyme inhibitors, confirmation, biochemical, luminescence (AID 1512); format: functional
[21] = target: T5, Alkaline phosphatase, tissue-nonspecific isozyme (Homo sapiens, UniProt P05186); test: human TNAP enzyme inhibitors, SAR follow-up, biochemical, luminescent, dose response (AID 1056)
T5 sequence (P05186 whole entry): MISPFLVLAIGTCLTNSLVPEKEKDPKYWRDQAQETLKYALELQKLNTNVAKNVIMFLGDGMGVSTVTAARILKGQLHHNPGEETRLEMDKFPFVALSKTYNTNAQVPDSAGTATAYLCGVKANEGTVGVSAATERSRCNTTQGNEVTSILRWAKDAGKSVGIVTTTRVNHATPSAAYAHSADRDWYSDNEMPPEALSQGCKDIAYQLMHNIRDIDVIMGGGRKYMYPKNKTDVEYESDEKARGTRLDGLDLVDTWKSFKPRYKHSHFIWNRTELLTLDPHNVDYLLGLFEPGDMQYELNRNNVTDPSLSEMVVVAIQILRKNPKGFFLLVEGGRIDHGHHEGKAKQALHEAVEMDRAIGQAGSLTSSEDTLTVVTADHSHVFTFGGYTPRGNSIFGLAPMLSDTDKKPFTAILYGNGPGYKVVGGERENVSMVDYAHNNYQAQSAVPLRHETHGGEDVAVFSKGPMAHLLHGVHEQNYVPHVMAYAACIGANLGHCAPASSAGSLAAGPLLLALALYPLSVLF

[22] = target: Peroxisome proliferator-activated receptor gamma/Nuclear receptor coactivator 1 (Homo sapiens, UniProt P37231); test: TR-FRET dose response biochemical High Throughput Screening assay for agonists of the steroid receptor coactivator 1 (SRC-1) recruitment by the peroxisome proliferator-activated receptor gamma (PPAR gamma): non-selective agonists. [Related pubchem assays (depositor defined):AID1300, AID1808, AID504735, AID631]; format: protein assay
[23] = target: Peroxisome proliferator-activated receptor gamma/Nuclear receptor coactivator 3 (Homo sapiens, UniProt P37231); test: TR-FRET dose response biochemical High Throughput Screening assay for agonists of the steroid receptor coactivator 3 (SRC-3) recruitment by the peroxisome proliferator-activated receptor gamma (PPAR gamma): non-selective agonists. [Related pubchem assays: 1301 (Confirmation screen.), 1048 (Primary screen.)]; format: functional
[24] = target: Peroxisome proliferator-activated receptor gamma/Nuclear receptor coactivator 2 (Homo sapiens, UniProt P37231); test: TR-FRET dose response biochemical High Throughput Screening assay for agonists of the steroid receptor coactivator 2 (SRC-2) recruitment by the peroxisome proliferator-activated receptor gamma (PPAR gamma): non-selective agonists. [Related pubchem assays: 1297, 1032 ]; format: functional
[25] = target: T6, Corticotropin-releasing factor receptor 2/Corticotropin-releasing factor-binding protein (Homo sapiens, UniProt P24387+Q13324); test: Dose Response confirmation of uHTS hits for small molecule antagonists of the CRF-binding protein and CRF-R2 receptor complex.; format: functional; settings: read-out: IC50_Mean
T6 sequence (Q13324 whole entry): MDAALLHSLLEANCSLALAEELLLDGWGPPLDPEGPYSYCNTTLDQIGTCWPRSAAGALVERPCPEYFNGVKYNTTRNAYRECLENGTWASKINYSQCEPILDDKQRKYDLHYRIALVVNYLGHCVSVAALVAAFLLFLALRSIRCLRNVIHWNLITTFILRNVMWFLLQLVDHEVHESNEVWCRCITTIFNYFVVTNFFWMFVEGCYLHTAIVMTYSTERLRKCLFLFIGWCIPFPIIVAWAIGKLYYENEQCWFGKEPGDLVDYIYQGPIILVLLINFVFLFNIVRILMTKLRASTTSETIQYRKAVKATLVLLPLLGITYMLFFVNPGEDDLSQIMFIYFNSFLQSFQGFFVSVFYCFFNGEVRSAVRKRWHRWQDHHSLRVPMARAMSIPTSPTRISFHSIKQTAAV
T6 sequence (P24387 whole entry): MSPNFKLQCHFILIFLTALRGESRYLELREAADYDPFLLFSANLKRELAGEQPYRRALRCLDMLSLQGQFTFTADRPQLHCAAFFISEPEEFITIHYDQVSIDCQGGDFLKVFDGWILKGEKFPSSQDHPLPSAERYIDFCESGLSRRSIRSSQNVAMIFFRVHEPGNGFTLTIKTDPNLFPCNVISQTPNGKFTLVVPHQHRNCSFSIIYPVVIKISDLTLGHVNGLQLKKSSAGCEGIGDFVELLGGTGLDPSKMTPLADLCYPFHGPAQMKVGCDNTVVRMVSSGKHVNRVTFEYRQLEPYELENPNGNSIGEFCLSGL

[26] = target: T6, Corticotropin-releasing factor receptor 2/Corticotropin-releasing factor-binding protein; test: activators of CRF receptor 2 with binding protein – uHTS hits, confirmation (AID 602473); format: functional; settings: read-out: EC50_Mean

## CCn1cc(CN2CCC(n3nccc3NC(=O)CCOc3ccccc3)CC2)cn1
[1]
  EC50: 1.19 µM (active)

## O=C(Nc1nc(-c2nc3ccccc3s2)cs1)C1COc2ccccc2O1 (centres undefined)
[2]
  IC50: 25.1 µM (active)
[3]
  EC50: > 71.5 µM (inactive)

## O=C(Cc1ccccc1)N/N=C/c1ccc([N+](=O)[O-])s1
[4]
  CC50: 12.5 µM (active)
[5]
  EC50: 8.44 µM (active)
[6]
  CC50: 16 µM (active)
[7]
  EC50: 9.53 µM (active)
[8]
  CC50: 26.6 µM (active)
[9]
  AC50: 6.38 µM (active)
[10]
  IC50: 11.1 µM (active)

## COc1ccc(-n2c(NC(=O)c3ccc(Br)o3)c(C#N)c3nc4ccccc4nc32)cc1
[11]
  IC50: > 100 µM (not active)
[12]
  IC50: 17.8 µM (active)
[13]
  IC50: 8.09 µM (active)
[14]
  IC50: 20.2 µM (active)

## CC(CCC(C)C(C)(C)C)[C@@H]1CC[C@H]2C3C[C@H](OS(O)(=S)=S)[C@H]4C[C@H](OS(O)(=S)=S)[C@@H](OS(O)(=S)=S)C[C@]4(C)[C@H]3CC[C@]12C.Nc1ncc[nH]1 (some centres undefined)
[15]
  IC50: 8.34 µM (active)
[16]
  IC50: 3.66 µM (active)

## CCn1c(N2CCN(C(S)=NCC(C)C)CC2)nc2ccccc21
[1]
  EC50: 1.68 µM (active)

## Cc1ccc(NC(=O)c2ccccc2OCC(=O)Nc2cccc(Cl)c2C)nc1
[12]
  IC50: 17.8 µM (active)
[13]
  IC50: 34.5 µM (active)

## CCOc1cc(C2C3=C(CCCC3=O)N(CCC(=O)O)C3=C2C(=O)CCC3)ccc1OS(=O)(=O)c1ccc(C)cc1
[17]
  IC50: 30.5 µM (active)
[18]
  IC50: 0.629 µM (active)

## O=C(c1cc(-c2ccc(Cl)cc2Cl)n[nH]1)N1CCOCC1
[19]
  IC50: > 100 µM (not active)
[20]
  IC50: > 100 µM (inactive)

## Cc1cccn2c(=O)c(/C=C(\C#N)C(=O)NCc3ccco3)c(N3CCC(C(N)=O)CC3)nc12
[17]
  IC50: > 100 µM (inactive)
[18]
  IC50: > 100 µM (inactive)

## CCc1nnc(SCC(=O)c2ccc(O)c(O)c2)[nH]1
[20]
  IC50: 3.25 µM (active)
[21]
  IC50: 10.9 µM (active)

## CCCC(C)NC(=O)c1ccc(OCc2ccc(Cl)cc2)c(OC)c1 (centres undefined)
[22]
  EC50: 157 µM (inactive)
[23]
  EC50: 13.8 µM (not active)
[24]
  EC50: > 79.4 µM (not active)

## CCOc1cc(C2C(C(=O)OC)=CN(C3CCCC3)C=C2C(=O)OC)cc(Br)c1O
[25]
  IC50: > 47.1 µM (inactive)
[26]
  EC50: > 53 µM (inactive)
[15]
  IC50: > 75.4 µM (not active)
[16]
  IC50: > 59.6 µM (inactive)
